Consider one compound from patent US20230295580A1, “SPHEROID GENERATOR, SPHEROID CULTURE KIT, AND SPHEROID CULTURE METHOD” (RESEARCH AND BUSINESS FOUNDATION SUNGKYUNKWAN UNIVERSITY, priority 2020, published 2023).

The test system of this experiment is cancer cells of the spheroid. Nature of the experiment: Spheroid culture with anticancer substance injected through sub-injection part; live/dead cancer cell viability. Format: cell-based. To be noted: spheroid formed for 12 to 36 hours, then anticancer substance for 12 to 36 hours; increasing injected volume of TMZ; Dead/Live/Merge images, microscope. On the procedure:
Referring to FIG. 11 to FIG. 13, a spheroid generator 10 in which the size of a sub-injection part 18 is increased from one side to the other side of a culture plate 120 is disposed (S11). In this case, main injection parts 14 having the same size are formed in all of the spheroid generators 10.
A cancer cell solution 21 is prepared (S12). That is, the cancer cell solution 21 is prepared by mixing a plurality of cancer cells with a culture medium 24.
The cancer cell solution 21 is injected into the main injection parts 14 of the plurality of spheroid generators 10 (S13). In this case, since main injection parts 14 having the same size are formed in all of the spheroid generators 10, the same amount of the cancer cell solution 21 is injected into all of the main injection parts 14.
As the cancer cells of the cancer cell solution 21 are cultured in the plurality of spheroid generators 10, a spheroid 25 is formed (S14). In this case, the step of forming a spheroid 25 as the cancer cells of the cancer cell solution 21 are cultured in the plurality of spheroid generators 10 is performed for 12 to 36 hours.
An anticancer substance 23 is injected into a sub-injection part 18 of the plurality of spheroid generators 10 (S15). […]

With `Cn1nnc2c(C(N)=O)ncn2c1=O` [TMZ], the “relative viability of cancer cells” value is on record as “decreases”.
